Laboratory results taken from ChEMBL document CHEMBL1687705, “Design, Synthesis, and in Vitro Evaluation of Novel Aminomethyl-pyridines as DPP-4 Inhibitors” (ACS Med Chem Lett, 2010).

Experiments:
[1] = target: Dipeptidyl peptidase 4 (Homo sapiens, UniProt P27487); experiment: Inhibition of human recombinant DPP4 assessed as Gly-Pro-pNA chromogenic substrate cleavage for 16 mins preincubated with compound for 10 mins before addition of chromogenic substrate
[2] = system: HeLa; experiment: Cytotoxicity against human HeLa cells; format: functional; settings: read-out: LC50 (the source's name)
[3] = target: Dipeptidyl peptidase 8 (Homo sapiens, UniProt Q6V1X1); experiment: Inhibition of human recombinant DPP8 assessed as Gly-Pro-pNA chromogenic substrate cleavage for 16 mins preincubated with compound for 10 mins before addition of chromogenic substrate
[4] = system: HeLa; experiment: Cytotoxicity against human HeLa cells at 10 uM; format: functional, cell-based
[5] = organism: Homo sapiens; experiment: Selectivity ratio of IC50 for human recombinant DPP8 to IC50 for human recombinant DPP4

Sequence of Dipeptidyl peptidase 8 (Q6V1X1 whole entry): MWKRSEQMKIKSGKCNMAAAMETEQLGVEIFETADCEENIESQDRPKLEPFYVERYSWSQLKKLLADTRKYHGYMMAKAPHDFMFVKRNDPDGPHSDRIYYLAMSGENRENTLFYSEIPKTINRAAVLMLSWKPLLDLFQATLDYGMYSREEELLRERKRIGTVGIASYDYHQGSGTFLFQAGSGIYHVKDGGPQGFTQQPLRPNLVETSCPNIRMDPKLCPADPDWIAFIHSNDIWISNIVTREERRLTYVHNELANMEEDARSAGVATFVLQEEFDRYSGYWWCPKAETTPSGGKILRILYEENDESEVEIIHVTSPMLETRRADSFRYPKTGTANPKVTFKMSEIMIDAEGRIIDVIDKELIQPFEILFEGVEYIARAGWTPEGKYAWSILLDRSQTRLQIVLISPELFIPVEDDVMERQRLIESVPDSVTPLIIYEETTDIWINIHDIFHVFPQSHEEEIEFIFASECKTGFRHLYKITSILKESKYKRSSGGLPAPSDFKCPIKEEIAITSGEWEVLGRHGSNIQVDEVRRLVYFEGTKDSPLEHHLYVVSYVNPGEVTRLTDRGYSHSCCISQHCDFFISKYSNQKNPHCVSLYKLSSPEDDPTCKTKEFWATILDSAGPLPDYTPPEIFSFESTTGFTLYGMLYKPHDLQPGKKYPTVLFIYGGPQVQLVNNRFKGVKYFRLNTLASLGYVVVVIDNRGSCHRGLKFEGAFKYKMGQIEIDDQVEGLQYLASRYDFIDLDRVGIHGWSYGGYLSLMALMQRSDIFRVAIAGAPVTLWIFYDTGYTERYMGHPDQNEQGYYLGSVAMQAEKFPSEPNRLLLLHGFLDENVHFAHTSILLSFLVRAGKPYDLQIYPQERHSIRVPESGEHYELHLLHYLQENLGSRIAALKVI
Sequence of Dipeptidyl peptidase 4 (P27487 whole entry): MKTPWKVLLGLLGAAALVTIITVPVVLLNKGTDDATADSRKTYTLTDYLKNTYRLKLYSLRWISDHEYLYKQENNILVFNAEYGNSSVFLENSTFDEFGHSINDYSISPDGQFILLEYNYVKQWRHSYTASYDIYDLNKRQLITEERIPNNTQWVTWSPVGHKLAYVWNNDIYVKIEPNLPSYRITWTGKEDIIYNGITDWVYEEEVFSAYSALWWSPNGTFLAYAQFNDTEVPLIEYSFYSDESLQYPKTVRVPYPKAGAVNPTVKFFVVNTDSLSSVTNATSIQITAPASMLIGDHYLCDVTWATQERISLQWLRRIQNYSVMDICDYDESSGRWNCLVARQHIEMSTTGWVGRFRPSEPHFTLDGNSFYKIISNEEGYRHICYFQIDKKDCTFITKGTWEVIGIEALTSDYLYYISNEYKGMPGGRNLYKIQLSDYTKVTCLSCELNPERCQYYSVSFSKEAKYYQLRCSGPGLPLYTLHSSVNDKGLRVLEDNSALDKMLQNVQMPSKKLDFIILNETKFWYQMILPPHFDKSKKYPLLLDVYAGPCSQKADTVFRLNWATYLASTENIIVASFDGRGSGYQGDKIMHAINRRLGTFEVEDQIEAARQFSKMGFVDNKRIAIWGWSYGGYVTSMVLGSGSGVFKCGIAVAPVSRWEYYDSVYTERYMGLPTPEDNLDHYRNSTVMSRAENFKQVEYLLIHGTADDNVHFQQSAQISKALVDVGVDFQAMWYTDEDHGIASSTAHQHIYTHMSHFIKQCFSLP

Row | Structure (SMILES) | IC50 [1] | CC50 [2] | Activity [4] | also measured
1 | CNC(=O)c1cc(-c2ccc(Cl)cc2)c(CN)c(C)n1 | < 50 µM |  |  | 
2 | Cc1nc(C(=O)NC2CC2)cc(-c2ccc(F)cc2)c1CN |  | > 10 µM |  | Ki [3]: 106 µM
3 | Cc1nc(C(=O)NC2CC2)cc(-c2ccc(F)cc2F)c1CN |  | > 10 µM |  | Ki [3]: 182 µM
4 | Cc1nc(CN)cc(-c2ccccc2F)c1C(N)=O | > 50 µM |  |  | 
5 | Cc1nc(CN)cc(-c2ccc(Cl)cc2)c1C(N)=O | > 50 µM |  |  | 
6 | Cc1nc(C(N)=O)cc(-c2ccc(Cl)cc2Cl)c1CN |  | > 10 µM | Not toxic | 
7 | Cc1cc(NC(=O)c2cc(-c3ccc(F)cc3F)c(CN)c(C)n2)no1 |  | > 10 µM |  | Ki [3]: 179 µM
8 | Cc1nc(C(=O)O)cc(-c2ccc(F)cc2F)c1CN | < 50 µM |  |  | 
9 | Cc1nc(C(=O)N2CCCC2)cc(-c2ccc(F)cc2)c1CN |  | > 10 µM |  | Ki [3]: 137 µM
10 | Cc1nc(C(=O)N2CCCC2)cc(-c2ccc(Cl)cc2Cl)c1CN |  | > 10 µM | Not toxic | 
11 | Cc1nc(C(=O)NC2CC2)cc(-c2ccccc2F)c1CN | < 50 µM |  |  | 
12 | Cc1nc(C(=O)NCC(N)=O)cc(-c2ccc(Cl)cc2Cl)c1CN | < 50 µM |  | Not toxic | Ratio IC50 [5]: 6600
13 | Cc1nc(C(=O)N2CCOCC2)cc(-c2ccc(Cl)cc2Cl)c1CN | < 50 µM |  | Not toxic | 
14 | Cc1nc(C(=O)NC2CC2)cc(-c2ccc(Cl)cc2Cl)c1CN | < 50 µM |  | Not toxic | 
15 | Cc1nc(C(N)=O)cc(-c2ccccc2F)c1CN | < 50 µM |  |  | 
16 | CNC(=O)c1cc(-c2ccc(Cl)cc2Cl)c(CN)c(C)n1 |  | > 10 µM | Not toxic | 
17 | Cc1nc(C(=O)NCC#N)cc(-c2ccc(Cl)cc2Cl)c1CN |  | > 10 µM | Not toxic | 
18 | Cc1nc(C(=O)O)cc(-c2ccc(F)cc2)c1CN | < 50 µM |  |  | 
19 | Cc1nc(C(=O)N2CCOCC2)cc(-c2ccc(F)cc2)c1CN | < 50 µM |  |  | 
20 | Cc1nc(C(=O)N2CCOCC2)cc(-c2ccc(F)cc2F)c1CN | < 50 µM |  |  | 
21 | COC(=O)CNC(=O)c1cc(-c2ccc(F)cc2F)c(CN)c(C)n1 | < 50 µM |  |  | 
22 | Cc1nc(C(=O)N2CCCC2)cc(-c2ccc(F)cc2F)c1CN | < 50 µM |  |  | 
23 | Cc1nc(C(=O)N2CCCC2)cc(-c2ccccc2F)c1CN | < 50 µM |  |  | 
